Results reported in PubChem BioAssay AID1320 (NMMLSC, 2008).
Activity calls are given as the source filed them. The rule behind the calls is not given here.

The compounds below were run against Bcl-2-related protein A1 (Homo sapiens) (UniProt Q16548) (assay: Bfl-1/Bim complex disruptors – biochemical, multiplexed, bead-based flow cytometry, dose response (AID 1320; for percent span (inhibition): test concentration not given here)). Settings: Bim peptide-Bfl-1 binding, fluorescence.
Bcl-2-related protein A1 (Homo sapiens), sequence (Q16548 whole entry, looked up): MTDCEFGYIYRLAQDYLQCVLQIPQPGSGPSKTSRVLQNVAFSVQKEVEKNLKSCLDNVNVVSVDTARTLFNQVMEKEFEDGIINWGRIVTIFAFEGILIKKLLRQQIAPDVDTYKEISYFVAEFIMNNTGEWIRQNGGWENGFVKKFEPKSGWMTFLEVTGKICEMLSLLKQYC

Row | SMILES | EC50
1 | Cc1c(NC2=C(Cl)C(=O)N(c3ccccc3Cl)C2=O)c(=O)n(-c2ccccc2)n1C | 6.04 µM

Same assay, conditions: Bim peptide-Bfl-1 binding, fluorescence, stronger effect = higher value

Row | SMILES | percent span (inhibition)
2 | Cc1ccc(-n2c(CSc3nc(C)cc(C)n3)nnc2SCC(=O)NCc2ccco2)cc1 | inactive
3 | O=C1C=C(Nc2ccccc2)C(=O)c2ccccc21 | inactive
4 | CN(C(=O)NC1CCCCC1)c1ccccc1 | inactive
5 | COc1ccccc1-n1c(-c2ccc(Cl)cc2)c[nH]c1=S | inactive
6 | Cc1ccc2c(c1)c(C)c(C)n2CC(O)Cn1nc(C)c(Br)c1C (stereo unspecified) | inactive
7 | CCOC(=O)c1nc(Nc2ccc(C(=O)OC)cc2)c2ccccc2n1 | inactive
8 | COc1ccc(S(=O)(=O)NCCOc2cccc3cccnc23)cc1OC | inactive
9 | COc1ccc(NC(=O)c2c(F)cccc2F)cc1S(=O)(=O)Nc1ccc(Br)cc1 | inactive
10 | COc1ccc(C2=Nn3c(nnc3-c3ccco3)SC2)cc1OC | inactive
11 | CN1CCN(c2ccc(N)cc2)CC1 | inactive
12 | S=C(Nc1ccccc1)N1CCn2cccc2C1c1cccnc1 (stereo unspecified) | inactive
13 | Clc1ccc(N=c2ssnc2Cl)nc1 | inactive
14 | c1ccc(Nc2nc(-c3ccncc3)cs2)cc1 | inactive
15 | O=C1CCc2cc(S(=O)(=O)NCCCC(=O)N3CCN(Cc4ccc5c(c4)OCO5)CC3)ccc2N1 | inactive
16 | CC1Cc2ccccc2N1C(=O)c1ccc(N2CCCC2)c([N+](=O)[O-])c1 (stereo unspecified) | inactive
17 | O=C1NC(=O)C2(Cc3c(nc4ccccn4c3=O)N3CCCCCC32)C(=O)N1Cc1ccccc1 (stereo unspecified) | inactive
18 | Cn1c(CNc2nc(-c3ccccc3)cs2)nnc1SCC(=O)N1CCc2ccccc21 | inactive
19 | O=C(OCc1cnc(Cl)s1)c1cccc(Cl)c1Cl | inactive
20 | Cc1cc(N/C(=N/S(=O)(=O)c2cc(F)ccc2F)c2ccccc2)n(-c2ccccc2)n1 | inactive
21 | CCOC(=O)C1=C(CP(=O)(c2ccccc2)c2ccccc2)NC(=O)NC1c1ccc(OC)cc1 (stereo unspecified) | inactive
22 | COc1cccc(/C=N/Nc2nn3cnnc3c3ccccc23)c1O | inactive
23 | Cc1ccc(OCC(=O)NCc2ccccn2)c(Br)c1 | inactive
24 | C#CCOCCOCCOCCNc1nc(N2CCN(C(=O)[C@H]([C@@H](C)CC)n3cc([C@@H](N)CC(C)C)nn3)CC2)nc(N2CCN(C(=O)[C@H](Cc3cc4ccccc4[nH]3)n3cc([C@@H](N)Cc4ccc(O)cc4)nn3)CC2)n1 | inactive
25 | COc1ccc(NC(=O)c2cccs2)cc1 | inactive

Row | SMILES | percent span (inhibition)
26 | O=C(C1=NN[C@@H]2C(=O)N(c3ccccc3C(F)(F)F)C(=O)[C@H]12)c1ccc2ccccc2n1 | inactive
27 | Cc1cnnn1-c1ccc(C(=O)CCl)cc1 | inactive
28 | Cc1ccc(CNc2ccc3c(c2)OCO3)c(C)c1 | inactive
29 | BrC(=C\c1ccccc1)/C=N/N1CCN(c2ccccc2)CC1 | inactive
30 | Cc1ccc(-c2cc(C(=O)Nc3ccccn3)c3ccccc3n2)o1 | inactive
31 | Cc1cc(-c2nn(-c3ccccc3)cc2/C=C2\SC(N)=NC2=O)ccc1OC(C)C | inactive
32 | COc1cccc(C(=O)/C=C/Nc2ccc(S(=O)(=O)Nc3onc(C)c3C)cc2)c1 | inactive
33 | O=C1NCCN1C(=O)N(c1ccccc1)c1ccccc1 | inactive
34 | COc1cccc(/C=N/NC(=O)c2cc3cc([N+](=O)[O-])ccc3s2)c1O | inactive
35 | Cn1c(=O)c2c(nc(NCCO)n2CCc2ccccc2)n(C)c1=O | inactive
36 | CN(/N=C/c1cccnc1)C1=NS(=O)(=O)c2ccccc21 | inactive
37 | COc1ccc(N2CCN(C(CNS(=O)(=O)c3ccc4c(c3)OCCO4)c3ccco3)CC2)cc1 (stereo unspecified) | inactive
38 | Nc1ccc(N2CCCCCC2)cc1 | inactive
39 | CCNCc1cc(Br)c(OCC(=O)Nc2ccccc2)c(OC)c1 | inactive
40 | COC(=O)c1ccc(-n2nnnc2SCC(=O)Nc2cc(OC)ccc2OC)cc1 | inactive
41 | CCc1nn2cc(C(=O)c3cc(C)ccc3O)cnc2c1-c1ccc(F)cc1 | inactive
42 | O=C(Nc1cccc(-c2ccc3nncn3n2)c1)c1ccco1 | inactive
43 | Cc1cc2nc(/C(C#N)=C/c3ccncc3)[nH]c2cc1C | inactive
44 | CNC(=O)/C(C#N)=C/c1c(N(Cc2ccccc2)Cc2ccccc2)nc2c(C)cccn2c1=O | inactive
45 | C1=CC2c3ccccc3NC(c3ccncc3)C2C1 (stereo unspecified) | inactive
46 | COc1ccc(C(=O)/C=C/c2cc(OC)c(O)c(OC)c2)c(F)c1 | inactive
47 | CC1(C)CC(=O)C(C=NCCN2CCN(CCc3ccccc3)CC2)=C(O)C1 | inactive
48 | CC(C)(C)C1CCC(=NNC(=O)c2cc3c(s2)CCCC3)CC1 (stereo unspecified) | inactive
49 | O=C(O)c1ccccc1NSc1ccccc1[N+](=O)[O-] | inactive

Row | SMILES | percent span (inhibition)
50 | O=C1c2ccccc2C(=O)N1c1cccc2cccnc12 | inactive
51 | COc1ccccc1NC(=O)CSc1ncn(-c2ccccc2)n1 | inactive
52 | CN(CCc1ccccn1)C(=O)CCC1CCCN(C(=O)NC2CCCCC2)C1 (stereo unspecified) | inactive
53 | Cc1ccc(NN2C(=O)C=CC2=O)cc1 | inactive
54 | CCCCNC(=O)c1ccc2nc(-c3ccco3)c(-c3ccco3)nc2c1 | inactive
55 | Cc1cc(Cl)c(S(=O)(=O)NCC2CCCO2)cc1OCC(N)=O (stereo unspecified) | inactive
56 | COC(=O)Cc1ccc(NC(=S)N2CCN(c3cccc(O)c3)CC2)cc1 | inactive
57 | Cc1cc(C)cc(NS(=O)(=O)c2ccc3c(c2)c(=O)n(C)c(=O)n3C)c1 | inactive
58 | O=C(/C=C/c1c(F)cccc1Cl)Nc1ccncc1 | inactive
59 | COc1cccc2c(SCC(=O)N/N=C/c3ccccc3)cc(C)nc12 | inactive
60 | CCOC(=O)N1CCC(c2cc(=O)n(-c3ccccc3)[nH]2)CC1 | inactive
61 | CCn1c(C)nc2cc(C(=O)N/N=C/c3ccc(O)c(O)c3O)ccc21 | inactive
62 | Cc1ccnc(NS(=O)(=O)c2ccc(NS(=O)(=O)c3cccs3)cc2)n1 | inactive
63 | Cc1ccc(N=C2NC(=O)/C(=C/C=C/c3ccco3)S2)cc1 | inactive
64 | O=C(O)c1ccc(NS(=O)(=O)c2ccc3c(c2)C(=O)c2ccccc2C3=O)cc1 | inactive
65 | COc1ccc(Cl)cc1-n1c(C)cc(C=O)c1C | inactive
66 | CCNC(=S)Nc1cc(OCC)c(NC(=O)c2cccs2)cc1OCC | inactive
67 | C=CCn1c(SCC(=O)Nc2ccc3c(c2)OCO3)nnc1-c1cc(Br)ccc1O | inactive
68 | COc1ccc2cc(CN(CCc3ccccc3)Cc3nnnn3CC3CCCO3)c(=O)[nH]c2c1 (stereo unspecified) | inactive
69 | Cc1cc(Cl)ccc1N=c1ssnc1Cl | inactive
70 | CN(C)/C=C/C(=O)c1ccc(C(F)(F)F)cc1F | inactive
71 | Cc1ccc(S(=O)(=O)N2CCCCC2)cc1NC(=O)COC(=O)c1ccccc1F | inactive
72 | COc1cc(/C=N/NC(=O)c2ccc([N+](=O)[O-])cc2Cl)cc(Br)c1O | inactive
73 | CCc1ccc(NC(=O)Cc2ccc(OC)cc2)cc1 | inactive

Row | SMILES | percent span (inhibition)
74 | Cc1cc(C)c(C)c(S(=O)(=O)N2CCN(CC(=O)NC(=O)NCc3ccccc3)CC2)c1C | inactive
75 | COc1ccc(CN(CC(=O)NC2CCCC2)C(=O)CCC(=O)Nc2cc(C)on2)cc1 | inactive
76 | CC(C(=O)Nc1ccc([N+](=O)[O-])cc1)N1CCN(C/C=C/c2ccccc2)CC1 (stereo unspecified) | inactive
77 | O=C(Nc1nnc(C2CC2)s1)C1Cc2ccccc2CN1S(=O)(=O)c1ccccc1F (stereo unspecified) | inactive
78 | Cn1c(N)c(C(=O)COC(=O)c2cncc(Br)c2)c(=O)n(C)c1=O | inactive
79 | CCOc1ccccc1-n1c(=O)c2ccccc2c2ccccc2c1=O | inactive
80 | CN(C)c1ccc(C(=O)/C=C/c2ccc(Br)cc2)cc1 | inactive
81 | Cc1ccc(C(=O)N/N=C2/NC(=O)CC(C(=O)Nc3ccccc3)S2)cc1 (stereo unspecified) | inactive
82 | O=C(NCc1ccccc1)C(=O)Nc1nc(C23CC4CC(CC(C4)C2)C3)cs1 | inactive
83 | CC(C(=O)Nc1cc([N+](=O)[O-])ccc1Cl)N1CCN(c2ccc(O)cc2)CC1 (stereo unspecified) | inactive
84 | Cc1noc(C)c1COc1ccc(C(=O)Nc2cccnc2)cc1 | inactive
85 | C(=C\c1ccccc1)/CSc1nnc(-c2ccccn2)n1Cc1ccco1 | inactive
86 | Cn1c(=O)c2cc(S(=O)(=O)Nc3cc(C(=O)O)cc(C(=O)O)c3)ccc2n(C)c1=O | inactive
87 | CC1(C)Cc2c(ccc3ccccc23)/C(=C/C(=O)N2CCCCC2)N1 | inactive
88 | O=C1C(Cl)=C(Nc2ccccc2O)C(=O)N1c1ccccc1 | inactive
89 | Cc1csc(SCCn2c(N3CCN(c4ccccc4)CC3)nc3c2c(=O)[nH]c(=O)n3C)n1 | inactive
90 | Cc1cc(N2CCN(C)CC2)nc2ccc(NC(=S)N3CCN(c4ccc(F)cc4)CC3)cc12 | inactive
91 | Cc1ccc(C)c(NC(=O)C(=O)NCc2ccccn2)c1 | inactive
92 | CCOC(=O)c1nc(Nc2ccc(Nc3ccccc3)cc2)c2ccccc2n1 | inactive
93 | Cc1nnc2ccc(-c3cccc(NC(=O)c4ccco4)c3)nn12 | inactive
94 | Clc1nssc1=Nc1ccccc1 | inactive
95 | Cc1cc(C)nc(/N=c2/ssnc2Cl)c1 | inactive
96 | COc1cc(/C=C2\S/C(=N/S(=O)(=O)c3ccccc3)NC2=O)c([N+](=O)[O-])cc1OC | inactive
